Test results reported in US20240300948A1, “Heterocyclic Compounds As Kinase Inhibitors” (Incyte Corporation, priority 2023, published 2024).

What was measured:
[1] = molecular target: T1, pseudo-kinase domain (JH2, amino-acids 536-812 with 3 surface mutations W659A, W777A, F794H) of human Wild Type JAK2 (Homo sapiens, UniProt O60674, F794H/W659A/W777A); test: JAK2 LanthaScreen JH2-WT binding assay; settings: 50 nM tracer, 1 hour at 25° C., read-out: JH2 BIND WT IC50
T1 construct: pseudo-kinase domain (JH2, amino-acids 536-812 with 3 surface mutations W659A, W777A, F794H); His (C); Avi (biotinylated) (C); purchased BPS Bioscience 79463; host or cells: baculovirus expression system
T1 sequence (O60674 536-812 W659A/W777A/F794H): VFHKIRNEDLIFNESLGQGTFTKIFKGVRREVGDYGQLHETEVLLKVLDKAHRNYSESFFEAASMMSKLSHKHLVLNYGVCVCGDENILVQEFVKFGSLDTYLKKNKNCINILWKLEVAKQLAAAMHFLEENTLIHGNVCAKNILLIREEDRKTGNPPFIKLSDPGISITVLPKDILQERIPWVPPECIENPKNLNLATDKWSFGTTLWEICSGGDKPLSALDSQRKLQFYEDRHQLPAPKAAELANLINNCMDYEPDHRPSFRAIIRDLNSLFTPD
Method in brief: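 Biotinylated His-Avi-tagged JAK2 JH2 (0.145 nM), baculovirus-expressed, incubated with compounds, 50 nM fluorescent JH2 tracer and 0.25 nM streptavidin-Tb, 1 h at 25° C in pH 7.5 Tris buffer with MgCl2 and DTT. Non-specific binding defined with 2 mM ATP. TR-FRET read; IC50 from four-parameter fit.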

[2] = molecular target: T2, catalytic domain (JH1, amino acids 826-1132) of human JAK2 (Homo sapiens, UniProt O60674); test: JAK2 LanthaScreen JH1 binding assay; settings: 50 nM tracer, 2 hours at 25° C., read-out: JH1 BIND IC50
T2 construct: catalytic domain (JH1, amino acids 826-1132) of human JAK2; FLAG (N); purchased Carna Biosciences 08-445-20N; host or cells: baculovirus expression system
T2 sequence (O60674 826-1132): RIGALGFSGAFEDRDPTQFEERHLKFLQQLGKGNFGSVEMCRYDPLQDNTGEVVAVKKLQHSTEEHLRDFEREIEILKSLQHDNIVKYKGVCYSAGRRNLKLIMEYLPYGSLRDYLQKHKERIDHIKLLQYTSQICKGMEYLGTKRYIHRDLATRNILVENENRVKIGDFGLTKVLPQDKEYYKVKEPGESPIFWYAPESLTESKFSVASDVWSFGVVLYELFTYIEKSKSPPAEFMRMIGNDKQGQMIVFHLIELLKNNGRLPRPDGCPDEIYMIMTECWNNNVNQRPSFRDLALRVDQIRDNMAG
Method in brief: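 Binding of compounds to biotinylated, FLAG-tagged human JAK2 JH1 (aa 826-1132; 1.5 nM) was measured by LanthaScreen TR-FRET with 50 nM fluorescent tracer and 0.5 nM streptavidin-Tb, in pH 7.5 Tris buffer. Non-specific binding was defined with 2 mM ATP. After 2 h at 25 °C, IC50 was fitted from four-parameter dose-response curves.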

[3] = molecular target: T3, pseudo-kinase domain (JH2, amino-acids 536-812 with 3 surface mutations W659A, W777A, F794H) of human V617F mutant JAK2 (Homo sapiens, UniProt O60674, F794H/V617F/W659A/W777A); test: JAK2 LanthaScreen JH2-V617F binding assay; settings: 50 nM tracer, 1 hour at 25° C., read-out: JH2 BIND V617F IC50
T3 construct: pseudo-kinase domain (JH2, amino-acids 536-812 with 3 surface mutations W659A, W777A, F794H); His (C); Avi (biotinylated) (C); purchased BPS Bioscience 79498; host or cells: baculovirus expression system
T3 sequence (O60674 536-812 V617F/W659A/W777A/F794H): as the sequence (O60674 536-812 W659A/W777A/F794H) above, with V82F counted along it
Method in brief: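 Biotinylated His-Avi-tagged construct, baculovirus-expressed, at 0.26 nM; compounds competed against 50 nM fluorescent JH2 tracer with 0.25 nM streptavidin-Tb in Tris pH 7.5 buffer. Non-specific binding defined with 2 mM ATP. Read after 1 h at 25° C by TR-FRET; IC50 from four-parameter fit.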

COC(=O)N[C@H]1C[C@H](N2C(=O)NCc3cnc4[nH]c(C5CC5)c(-c5ccc6c(cnn6C(C)C)c5)c4c32)C1 [Example 36, Methyl ((1r,3r)-3-(8-cyclopropyl-9-(1-isopropyl-1H-indazol-5-yl)-2-oxo-2,3,4,7-tetrahydro-1H-pyrrolo[3′,2′:5,6]pyrido [4,3-d]pyrimidin-1-yl)cyclobutyl) carbamate]
IC50 [1]: 10 to 100 nM | IC50 [2]: > 1000 nM | IC50 [3]: 10 to 100 nM

COC(=O)N[C@H]1C[C@H](N2C(=O)NCc3cnc4[nH]c(-c5cc(C)nc(C)c5)c(-c5ccc6c(cnn6C(C)C)c5)c4c32)C1 [Example 35, Methyl ((1r,3r)-3-(8-(2,6-dimethylpyridin-4-yl)-9-(1-isopropyl-1H-indazol-5-yl)-2-oxo-2,3,4,7-tetrahydro-1H-pyrrolo[3′,2′:5,6]pyrido[4,3-d]pyrimidin-1-yl)cyclobutyl) carbamate]
IC50 [1]: 10 to 100 nM | IC50 [2]: > 1000 nM | IC50 [3]: 10 to 100 nM

CC(C)n1ncc2cc(-c3c(-c4cnn(C)c4)[nH]c4ncc5c(c34)N([C@H]3CC[C@@H]3NC(=O)NCC(F)F)C(=O)NC5)ccc21 (racemic) [Example 8, N-(2,2-Difluoroethyl)-3-(trans-2-(9-(1-isopropyl-1H-indazol-5-yl)-8-(1-methyl-1H-pyrazol-4-yl)-2-oxo-2,3,4,7-tetrahydro-1H-pyrrolo[3′,2′:5,6]pyrido[4,3-d]pyrimidin-1-yl)cyclobutyl)urea]
IC50 [1]: 10 to 100 nM | IC50 [2]: > 1000 nM | IC50 [3]: 100 to 500 nM

CC(=O)N[C@H]1C[C@@H](N2C(=O)NCc3cnc4[nH]c(-c5cnn(C)c5)c(-c5ccc6c(cnn6C(C)C)c5)c4c32)C1 [Example 5, N-((1s,3s)-3-(9-(1-Isopropyl-1H-indazol-5-yl)-8-(1-methyl-1H-pyrazol-4-yl)-2-oxo-2,3,4,7-tetrahydro-1H-pyrrolo[3′,2′:5,6]pyrido[4,3-d]pyrimidin-1-yl)cyclobutyl) acetamide]
IC50 [1]: 10 to 100 nM | IC50 [2]: 500 to 1000 nM | IC50 [3]: 10 to 100 nM

COC(=O)N[C@@H]1CC[C@@H](N2C(=O)NCc3cnc4[nH]c(-c5cnn(C)c5)c(-c5ccc6c(cnn6C)c5)c4c32)C1 [Example 29, Methyl ((1R,3R)-3-(9-(1-methyl-1H-indazol-5-yl)-8-(1-methyl-1H-pyrazol-4-yl)-2-oxo-2,3,4,7-tetrahydro-1H-pyrrolo[3′,2′:5,6]pyrido[4,3-d]pyrimidin-1-yl)cyclopentyl) carbamate]
IC50 [1]: ≤ 10 nM | IC50 [2]: > 1000 nM | IC50 [3]: 10 to 100 nM

COC(=O)N[C@@H]1CC[C@@H](N2C(=O)NCc3cnc4[nH]c(-c5cnn(C)c5)c(-c5cccc(F)c5)c4c32)C1 [Example 31, Methyl ((1R,3R)-3-(9-(3-fluorophenyl)-8-(1-methyl-1H-pyrazol-4-yl)-2-oxo-2,3,4,7-tetrahydro-1H-pyrrolo[3′,2′:5,6]pyrido[4,3-d]pyrimidin-1-yl)cyclopentyl) carbamate]
IC50 [1]: 10 to 100 nM | IC50 [2]: > 1000 nM | IC50 [3]: 100 to 500 nM

COC(=O)N[C@@H]1CC[C@@H](n2c(=O)nc(N(C)C)c3cnc4[nH]c(-c5cnn(C)c5)c(-c5ccc6c(cnn6C(C)C)c5)c4c32)C1 [Example 43, Methyl ((1R,3R)-3-(4-(dimethylamino)-9-(1-isopropyl-1H-indazol-5-yl)-8-(1-methyl-1H-pyrazol-4-yl)-2-oxo-2,7-dihydro-1H-pyrrolo[3′,2′:5,6]pyrido[4,3-d]pyrimidin-1-yl)cyclopentyl)carbamate]
IC50 [1]: 100 to 500 nM | IC50 [2]: > 1000 nM | IC50 [3]: 100 to 500 nM

CNc1nc(=O)n([C@@H]2CC[C@@H](NC(=O)OC)C2)c2c1cnc1[nH]c(-c3cnn(C)c3)c(-c3ccc4c(cnn4C(C)C)c3)c12 [Example 42, Methyl ((1R,3R)-3-(9-(1-isopropyl-1H-indazol-5-yl)-8-(1-methyl-1H-pyrazol-4-yl)-4-(methylamino)-2-oxo-2,7-dihydro-1H-pyrrolo[3′,2′:5,6]pyrido[4,3-d]pyrimidin-1-yl)cyclopentyl)carbamate]
IC50 [1]: 10 to 100 nM | IC50 [2]: > 1000 nM | IC50 [3]: 10 to 100 nM

COCc1ccc(-c2c(-c3cnn(C)c3)[nH]c3ncc4c(c23)N([C@@H]2CC[C@@H](NC(=O)OC)C2)C(=O)NC4)cc1 [Example 32, Methyl ((1R,3R)-3-(9-(4-(methoxymethyl)phenyl)-8-(1-methyl-1H-pyrazol-4-yl)-2-oxo-2,3,4,7-tetrahydro-1H-pyrrolo[3′,2′:5,6]pyrido[4,3-d]pyrimidin-1-yl)cyclopentyl) carbamate]
IC50 [1]: 10 to 100 nM | IC50 [2]: 500 to 1000 nM | IC50 [3]: 10 to 100 nM

COC(=O)N[C@@H]1CC[C@@H](N2C(=O)NCc3cnc4[nH]c(-c5cnn(C)c5)c(-c5ccc6c(cnn6C6CCC6)c5)c4c32)C1 [Example 24, Methyl ((1R,3R)-3-(9-(1-cyclobutyl-1H-indazol-5-yl)-8-(1-methyl-1H-pyrazol-4-yl)-2-oxo-2,3,4,7-tetrahydro-1H-pyrrolo[3′,2′:5,6]pyrido[4,3-d]pyrimidin-1-yl)cyclopentyl) carbamate]
IC50 [1]: 10 to 100 nM | IC50 [2]: 100 to 500 nM | IC50 [3]: 10 to 100 nM

COC(=O)N[C@@H]1CC[C@@H](n2c(=O)nc(OC)c3cnc4[nH]c(-c5cnn(C)c5)c(-c5ccc6c(cnn6C(C)C)c5)c4c32)C1 [Example 40, Methyl ((1R,3R)-3-(9-(1-isopropyl-1H-indazol-5-yl)-4-methoxy-8-(1-methyl-1H-pyrazol-4-yl)-2-oxo-2,7-dihydro-1H-pyrrolo[3′,2′:5,6]pyrido[4,3-d]pyrimidin-1-yl)cyclopentyl)carbamate]
IC50 [1]: 10 to 100 nM | IC50 [2]: > 1000 nM | IC50 [3]: 100 to 500 nM

CC(C)n1ncc2cc(-c3c(-c4cnn(C)c4)[nH]c4ncc5c(c34)N([C@H]3C[C@@H](NS(C)(=O)=O)C3)C(=O)NC5)ccc21 [Example 6, N-((1s,3s)-3-(9-(1-Isopropyl-1H-indazol-5-yl)-8-(1-methyl-1H-pyrazol-4-yl)-2-oxo-2,3,4,7-tetrahydro-1H-pyrrolo[3′,2′:5,6]pyrido[4,3-d]pyrimidin-1-yl)cyclobutyl) methanesulfonamide]
IC50 [1]: ≤ 10 nM | IC50 [2]: 100 to 500 nM | IC50 [3]: 10 to 100 nM

CC(C)n1ncc2cc(-c3c(-c4cnn(C)c4)[nH]c4ncc5c(c34)N([C@@H]3CC[C@@H](NS(C)(=O)=O)C3)C(=O)NC5)ccc21 [Example 10, N-((1R,3R)-3-(9-(1-Isopropyl-1H-indazol-5-yl)-8-(1-methyl-1H-pyrazol-4-yl)-2-oxo-2,3,4,7-tetrahydro-1H-pyrrolo[3′,2′:5,6]pyrido[4,3-d]pyrimidin-1-yl)cyclopentyl) methanesulfonamide]
IC50 [1]: 10 to 100 nM | IC50 [2]: > 1000 nM | IC50 [3]: 100 to 500 nM

COC(=O)N[C@H]1C[C@H](N2C(=O)NCc3cnc4[nH]c(-c5cnn(C)c5)c(-c5ccc6c(cnn6C(C)C)c5)c4c32)C1 [Example 1, Methyl ((1r,3r)-3-(9-(1-isopropyl-1H-indazol-5-yl)-8-(1-methyl-1H-pyrazol-4-yl)-2-oxo-2,3,4,7-tetrahydro-1H-pyrrolo[3′,2′:5,6]pyrido[4,3-d]pyrimidin-1-yl)cyclobutyl)carbamate]
IC50 [1]: ≤ 10 nM | IC50 [2]: 100 to 500 nM | IC50 [3]: ≤ 10 nM
